Assay results taken from ChEMBL document CHEMBL2074575, “Human organic anion transporting polypeptide-C (SLC21A6) is a major determinant of rifampin-mediated pregnane X receptor activation” (J Pharmacol Exp Ther, 2003).

Legend:
Format in all cases: functional, cell-based
[1] = target: T1, Solute carrier organic anion transporter family member 1B1 (Homo sapiens, UniProt Q9Y6L6); test: TP_TRANSPORTER: inhibition of E217betaG uptake (E217betaG: 0.5 uM, Indinavir: 10 uM) in OATP-C-expressing HeLa cells
T1 sequence (Q9Y6L6 whole entry): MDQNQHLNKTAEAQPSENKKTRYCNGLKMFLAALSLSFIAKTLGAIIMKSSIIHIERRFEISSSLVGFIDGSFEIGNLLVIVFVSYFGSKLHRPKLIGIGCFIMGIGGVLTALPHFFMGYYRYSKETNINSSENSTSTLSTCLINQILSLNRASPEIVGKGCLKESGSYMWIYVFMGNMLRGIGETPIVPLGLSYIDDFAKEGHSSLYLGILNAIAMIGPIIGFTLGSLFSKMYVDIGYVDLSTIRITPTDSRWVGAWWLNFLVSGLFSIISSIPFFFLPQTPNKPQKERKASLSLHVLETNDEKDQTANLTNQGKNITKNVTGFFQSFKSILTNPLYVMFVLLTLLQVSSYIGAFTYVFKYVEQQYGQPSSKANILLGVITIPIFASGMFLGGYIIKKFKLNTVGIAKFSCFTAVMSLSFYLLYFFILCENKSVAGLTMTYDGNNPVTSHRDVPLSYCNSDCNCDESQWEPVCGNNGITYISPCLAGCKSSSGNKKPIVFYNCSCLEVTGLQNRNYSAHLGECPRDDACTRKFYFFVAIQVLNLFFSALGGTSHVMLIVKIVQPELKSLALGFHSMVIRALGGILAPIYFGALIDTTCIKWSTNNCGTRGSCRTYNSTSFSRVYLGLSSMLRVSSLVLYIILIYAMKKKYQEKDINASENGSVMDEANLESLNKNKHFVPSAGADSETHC

[2] = target: T1, Solute carrier organic anion transporter family member 1B1; test: TP_TRANSPORTER: inhibition of E217betaG uptake (E217betaG: 0.5 uM, Nelfinavir: 10 uM) in OATP-C-expressing HeLa cells
[3] = target: T1, Solute carrier organic anion transporter family member 1B1; test: TP_TRANSPORTER: inhibition of E217betaG uptake (E217betaG: 0.5 uM, BSP: 10 uM) in OATP-C-expressing HeLa cells
[4] = target: T1, Solute carrier organic anion transporter family member 1B1; test: TP_TRANSPORTER: inhibition of E217betaG uptake (E217betaG: 0.5 uM, Rifampicin: 10 uM) in OATP-C-expressing HeLa cells
[5] = target: T1, Solute carrier organic anion transporter family member 1B1; test: TP_TRANSPORTER: inhibition of E217betaG uptake (E217betaG: 0.5 uM, Hyperforin: 10 uM) in OATP-C-expressing HeLa cells
[6] = target: T1, Solute carrier organic anion transporter family member 1B1; test: TP_TRANSPORTER: inhibition of E217betaG uptake (E217betaG: 0.5 uM, Saquinavir: 100 uM) in OATP-C-expressing HeLa cells
[7] = substrate: CO[C@H]1/C=C/O[C@@]2(C)Oc3c(C)c(O)c4c(O)c(c(/C=N/N5CCN(C)CC5)c(O)c4c3C2=O)NC(=O)/C(C)=C\C=C\[C@H](C)[C@H](O)[C@@H](C)[C@@H](O)[C@@H](C)[C@H](OC(C)=O)[C@@H]1C; test: TP_TRANSPORTER: uptake in OATP-C-expressing HeLa cells

Which Activity [1] does the source give for `CC(C)(C)NC(=O)[C@@H]1CN(Cc2cccnc2)CCN1C[C@@H](O)C[C@@H](Cc1ccccc1)C(=O)N[C@H]1c2ccccc2C[C@H]1O.O` here?
The Activity was “inhibitor [(at a rough estimate) 35 % of control]”.

For `Cc1c(O)cccc1C(=O)N[C@@H](CSc1ccccc1)[C@H](O)CN1C[C@H]2CCCC[C@H]2C[C@H]1C(=O)NC(C)(C)C`, which Activity [2] is on record?
Its Activity is “inhibitor [(at a rough estimate) 15 % of control]”.

How did the Activity [3] turn out when `O=C1OC(c2ccc(O)c(S(=O)(=O)[O-])c2)(c2ccc(O)c(S(=O)(=O)[O-])c2)c2c(Br)c(Br)c(Br)c(Br)c21.[Na+].[Na+]` [SULFOBROMOPHTHALEIN SODIUM] was run?
Its Activity is “inhibitor [(at a rough estimate) <5 % of control]”.

With `CO[C@H]1/C=C/O[C@@]2(C)Oc3c(C)c(O)c4c(O)c(c(/C=N/N5CCN(C)CC5)c(O)c4c3C2=O)NC(=O)/C(C)=C\C=C\[C@H](C)[C@H](O)[C@@H](C)[C@@H](O)[C@@H](C)[C@H](OC(C)=O)[C@@H]1C` [RIFAMPIN] as the molecule, how does the Activity [4] read?
Its Activity is “inhibitor [(at a rough estimate) 10 % of control]”.

How did the Activity [5] turn out when `CC(C)=CCC[C@]1(C)[C@@H](CC=C(C)C)C[C@]2(CC=C(C)C)C(=O)C(CC=C(C)C)=C(O)[C@@]1(C(=O)C(C)C)C2=O` was run?
The Activity was “inhibitor [(at a rough estimate) 10 % of control]”.

With `CC(C)(C)NC(=O)[C@@H]1C[C@@H]2CCCC[C@@H]2CN1C[C@@H](O)[C@H](Cc1ccccc1)NC(=O)[C@H](CC(N)=O)NC(=O)c1ccc2ccccc2n1` as the molecule, how does the Activity [6] read?
Its Activity is “inhibitor [(at a rough estimate) 10 % of control]”.

B1: Solute carrier organic anion transporter family member 1B1 (Homo sapiens) (protein)
chain: T1 sequence (Q9Y6L6 whole entry)
How did the Km [7] turn out when B1 was run?
Its Km is 1.5 µM.
